{
  "source": "ChEMBL document CHEMBL3853265",
  "about": "(Medchemcomm, 2016)",
  "key": {"[1]": {"target": "T1, Solute carrier family 22 member 11 (Homo sapiens, UniProt Q9NSA0)", "T1 sequence (Q9NSA0 whole entry)": "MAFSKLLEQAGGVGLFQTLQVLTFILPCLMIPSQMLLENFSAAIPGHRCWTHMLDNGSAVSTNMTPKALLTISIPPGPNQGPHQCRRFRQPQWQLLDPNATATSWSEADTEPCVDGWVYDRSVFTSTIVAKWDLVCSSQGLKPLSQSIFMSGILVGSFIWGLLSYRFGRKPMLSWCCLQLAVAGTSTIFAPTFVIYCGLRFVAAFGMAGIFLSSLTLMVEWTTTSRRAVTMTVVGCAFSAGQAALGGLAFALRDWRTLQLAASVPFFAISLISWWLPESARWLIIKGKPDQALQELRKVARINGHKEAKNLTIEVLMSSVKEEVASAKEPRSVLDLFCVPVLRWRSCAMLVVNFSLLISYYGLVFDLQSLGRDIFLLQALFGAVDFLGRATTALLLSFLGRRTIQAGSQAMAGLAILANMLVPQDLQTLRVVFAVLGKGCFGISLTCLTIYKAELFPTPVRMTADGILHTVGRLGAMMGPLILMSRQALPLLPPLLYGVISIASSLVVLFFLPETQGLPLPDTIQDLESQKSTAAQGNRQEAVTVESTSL", "assay": "Inhibition of OAT4 (unknown origin)"}, "Rattus norvegicus": {"system": "Rattus norvegicus", "assay": "Toxicity in po dosed Wistar Han rat assessed as drug tolerance administered for 14 days", "type": "organism-based", "conditions": "in vivo, 336 h"}, "[2]": {"assay": "Cytotoxicity against THLE cells", "type": "toxicity, cell-based", "conditions": "human"}, "[3]": {"assay": "Intrinsic clearance in human hepatocytes assessed per 10^6 cells", "type": "ADME, cell-based, Hepatocyte"}, "[4]": {"target": "T2, Solute carrier organic anion transporter family member 1B3 (Homo sapiens, UniProt Q9NPD5)", "T2 sequence (Q9NPD5 whole entry)": "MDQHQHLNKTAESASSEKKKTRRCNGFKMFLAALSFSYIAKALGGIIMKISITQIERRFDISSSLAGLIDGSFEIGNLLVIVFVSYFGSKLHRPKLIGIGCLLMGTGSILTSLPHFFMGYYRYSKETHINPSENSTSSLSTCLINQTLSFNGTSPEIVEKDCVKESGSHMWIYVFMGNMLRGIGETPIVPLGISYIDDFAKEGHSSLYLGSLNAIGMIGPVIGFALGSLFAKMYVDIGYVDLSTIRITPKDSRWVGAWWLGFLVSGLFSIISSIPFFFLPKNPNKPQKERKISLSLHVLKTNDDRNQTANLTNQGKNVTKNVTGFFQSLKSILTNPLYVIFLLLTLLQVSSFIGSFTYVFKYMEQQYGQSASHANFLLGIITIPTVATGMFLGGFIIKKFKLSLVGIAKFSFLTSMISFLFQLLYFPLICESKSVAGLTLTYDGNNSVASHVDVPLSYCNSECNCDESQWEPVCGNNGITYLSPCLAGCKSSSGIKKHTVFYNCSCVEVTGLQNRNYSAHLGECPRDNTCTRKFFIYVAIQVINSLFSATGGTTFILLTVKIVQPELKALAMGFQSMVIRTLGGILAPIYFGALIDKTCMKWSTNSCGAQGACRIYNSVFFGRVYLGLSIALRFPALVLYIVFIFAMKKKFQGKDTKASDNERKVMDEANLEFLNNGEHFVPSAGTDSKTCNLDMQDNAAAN", "assay": "Drug uptake assessed as human OATP1B3-mediated drug accumulation by cell-based assay relative to wild type protein", "type": "ADME"}, "[5]": {"target": "T3, Solute carrier family 22 member 6 (Homo sapiens, UniProt Q4U2R8)", "T3 sequence (Q4U2R8 whole entry)": "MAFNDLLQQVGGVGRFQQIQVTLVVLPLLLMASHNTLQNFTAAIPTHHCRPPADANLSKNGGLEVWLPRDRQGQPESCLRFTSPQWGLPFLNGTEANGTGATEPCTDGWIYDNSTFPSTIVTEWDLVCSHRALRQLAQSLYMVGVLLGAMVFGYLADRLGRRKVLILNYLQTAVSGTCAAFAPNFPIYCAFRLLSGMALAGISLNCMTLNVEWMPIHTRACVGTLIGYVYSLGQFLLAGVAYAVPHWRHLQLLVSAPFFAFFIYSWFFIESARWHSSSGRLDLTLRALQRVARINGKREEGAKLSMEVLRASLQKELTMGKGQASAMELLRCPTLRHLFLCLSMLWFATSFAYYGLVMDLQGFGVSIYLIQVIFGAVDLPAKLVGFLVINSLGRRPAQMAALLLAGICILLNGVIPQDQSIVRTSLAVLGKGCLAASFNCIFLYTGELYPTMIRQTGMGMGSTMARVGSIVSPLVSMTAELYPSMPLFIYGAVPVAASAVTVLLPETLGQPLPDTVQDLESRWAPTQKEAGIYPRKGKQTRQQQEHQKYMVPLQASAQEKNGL", "assay": "Inhibition of OAT1 (unknown origin)"}, "[6]": {"assay": "Plasma clearance in rat at 1 mg/kg, iv and 3 mg/kg, po", "type": "ADME, organism-based"}, "[7]": {"assay": "Intrinsic clearance in human liver microsomes", "type": "ADME", "conditions": "read-out: CLH"}, "[8]": {"assay": "Fraction unbound in dog plasma", "type": "ADME, cell-free, Canis lupus familiaris"}, "[9]": {"target": "T4, Solute carrier organic anion transporter family member 1B1 (Homo sapiens, UniProt Q9Y6L6)", "T4 sequence (Q9Y6L6 whole entry)": "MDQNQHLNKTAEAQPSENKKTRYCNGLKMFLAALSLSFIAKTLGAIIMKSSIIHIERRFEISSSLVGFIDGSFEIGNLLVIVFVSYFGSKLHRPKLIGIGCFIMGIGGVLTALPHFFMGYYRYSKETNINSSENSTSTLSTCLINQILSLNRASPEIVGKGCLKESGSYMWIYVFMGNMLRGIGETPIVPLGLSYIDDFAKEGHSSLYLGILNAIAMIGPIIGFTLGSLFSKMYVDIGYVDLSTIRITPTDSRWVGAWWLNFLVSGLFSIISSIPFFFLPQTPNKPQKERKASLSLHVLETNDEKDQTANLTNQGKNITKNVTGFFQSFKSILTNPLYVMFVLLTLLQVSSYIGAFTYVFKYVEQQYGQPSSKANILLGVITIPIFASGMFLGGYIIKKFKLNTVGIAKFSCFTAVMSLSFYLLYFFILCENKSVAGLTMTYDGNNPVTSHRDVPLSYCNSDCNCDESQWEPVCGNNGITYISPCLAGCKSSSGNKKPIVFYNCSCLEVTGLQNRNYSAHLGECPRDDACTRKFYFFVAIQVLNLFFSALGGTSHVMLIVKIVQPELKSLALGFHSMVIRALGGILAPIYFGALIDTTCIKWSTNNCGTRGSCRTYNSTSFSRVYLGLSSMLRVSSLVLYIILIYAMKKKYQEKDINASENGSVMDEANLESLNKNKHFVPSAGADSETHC", "assay": "Drug uptake assessed as human OATP1B1-mediated drug accumulation by cell-based assay relative to wild type protein", "type": "ADME"}, "[10]": {"assay": "Intrinsic clearance in dog liver microsomes", "type": "ADME, Canis lupus familiaris", "conditions": "read-out: CLH"}, "[11]": {"assay": "Renal clearance in rat at 1 mg/kg, iv and 3 mg/kg, po relative to GFR x fraction unbound", "type": "ADME, organism-based", "conditions": "in vivo"}, "[12]": {"assay": "Dissociation constant, pKa of the compound", "type": "physicochemical"}, "[13]": {"assay": "Mutagenicity in […] by Ames test in presence of […]", "type": "toxicity"}, "[14]": {"target": "Sodium channel protein type 5 subunit alpha (Homo sapiens, UniProt Q14524)", "sequence (Q14524 whole entry)": "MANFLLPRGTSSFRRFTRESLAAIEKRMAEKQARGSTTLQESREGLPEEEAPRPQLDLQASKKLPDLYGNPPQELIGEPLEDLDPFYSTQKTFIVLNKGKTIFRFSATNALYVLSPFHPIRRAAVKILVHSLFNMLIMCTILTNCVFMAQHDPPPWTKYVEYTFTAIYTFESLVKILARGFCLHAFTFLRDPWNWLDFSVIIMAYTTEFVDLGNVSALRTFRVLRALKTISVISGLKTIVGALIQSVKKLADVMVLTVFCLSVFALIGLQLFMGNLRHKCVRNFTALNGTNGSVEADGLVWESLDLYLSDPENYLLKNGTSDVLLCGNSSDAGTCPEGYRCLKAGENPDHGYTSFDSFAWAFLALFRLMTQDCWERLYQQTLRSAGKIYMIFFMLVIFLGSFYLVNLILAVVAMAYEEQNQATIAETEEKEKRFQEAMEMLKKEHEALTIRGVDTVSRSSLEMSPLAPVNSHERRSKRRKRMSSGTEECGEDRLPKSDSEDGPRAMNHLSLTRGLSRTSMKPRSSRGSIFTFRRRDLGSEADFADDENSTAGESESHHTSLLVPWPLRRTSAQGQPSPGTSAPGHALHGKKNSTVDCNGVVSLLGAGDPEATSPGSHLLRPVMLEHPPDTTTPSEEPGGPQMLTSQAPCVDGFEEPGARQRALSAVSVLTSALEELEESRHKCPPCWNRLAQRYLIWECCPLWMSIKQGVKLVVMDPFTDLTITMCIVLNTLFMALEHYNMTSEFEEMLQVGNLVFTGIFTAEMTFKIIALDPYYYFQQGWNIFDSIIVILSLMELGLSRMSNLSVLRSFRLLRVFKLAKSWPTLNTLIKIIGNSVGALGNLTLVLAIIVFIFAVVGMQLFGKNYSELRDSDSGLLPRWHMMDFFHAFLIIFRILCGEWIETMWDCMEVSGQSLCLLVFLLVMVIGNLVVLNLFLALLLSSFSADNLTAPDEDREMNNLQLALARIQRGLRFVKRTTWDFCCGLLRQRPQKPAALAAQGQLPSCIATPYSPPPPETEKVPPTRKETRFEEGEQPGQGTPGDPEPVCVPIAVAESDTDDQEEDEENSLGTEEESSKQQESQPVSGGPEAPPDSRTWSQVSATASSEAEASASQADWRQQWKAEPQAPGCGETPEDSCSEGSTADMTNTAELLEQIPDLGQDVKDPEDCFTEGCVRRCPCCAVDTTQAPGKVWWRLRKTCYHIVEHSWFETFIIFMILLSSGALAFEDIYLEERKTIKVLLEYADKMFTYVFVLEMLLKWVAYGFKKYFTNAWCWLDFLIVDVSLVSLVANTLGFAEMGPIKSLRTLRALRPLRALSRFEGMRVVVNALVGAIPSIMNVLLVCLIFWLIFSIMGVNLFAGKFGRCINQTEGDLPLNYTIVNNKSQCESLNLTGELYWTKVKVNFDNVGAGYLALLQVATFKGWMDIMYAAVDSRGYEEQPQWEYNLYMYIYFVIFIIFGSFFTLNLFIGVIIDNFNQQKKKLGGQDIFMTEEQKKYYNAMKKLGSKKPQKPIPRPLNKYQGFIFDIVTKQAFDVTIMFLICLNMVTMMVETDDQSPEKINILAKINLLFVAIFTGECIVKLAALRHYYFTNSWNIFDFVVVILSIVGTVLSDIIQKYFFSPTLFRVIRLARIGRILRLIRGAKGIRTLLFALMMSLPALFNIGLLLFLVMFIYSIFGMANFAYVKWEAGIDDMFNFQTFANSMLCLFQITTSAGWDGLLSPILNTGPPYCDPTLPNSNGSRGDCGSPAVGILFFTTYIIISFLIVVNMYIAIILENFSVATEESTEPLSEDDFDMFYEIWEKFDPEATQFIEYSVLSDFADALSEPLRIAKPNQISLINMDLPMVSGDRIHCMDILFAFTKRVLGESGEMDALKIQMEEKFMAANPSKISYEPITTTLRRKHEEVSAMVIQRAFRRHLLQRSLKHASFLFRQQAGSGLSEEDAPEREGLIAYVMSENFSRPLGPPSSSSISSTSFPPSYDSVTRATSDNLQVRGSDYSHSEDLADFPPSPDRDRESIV", "assay": "Inhibition of human NaV1.5 expressed in HEK293 cells by patch clamp method", "type": "cell-based"}},
  "data": [
    {"smiles": "O=S(=O)(Nc1ccc(C(F)(F)F)nc1)c1ccccc1C(F)(F)F", "values": [
      {"measurement": "IC50", "setting": "[1]", "value": 9.4, "unit": "µM"},
      {"measurement": "Activity", "setting": "Rattus norvegicus", "value": "<= 100 mg kg-1"},
      {"measurement": "Activity", "setting": "[2]", "value": 153, "unit": "µM"},
      {"measurement": "CLH", "setting": "[3]", "value": "< 6", "unit": "µL/min/1e6 cells"},
      {"measurement": "fold change (FC)", "setting": "[4]", "value": 0.582},
      {"measurement": "IC50", "setting": "[5]", "value": 12.3, "unit": "µM"},
      {"measurement": "clearance", "setting": "[6]", "value": 0.18, "unit": "mL/min/kg"},
      {"measurement": "microsomal CLint", "setting": "[7]", "value": "< 8", "unit": "µL/min/mg"},
      {"measurement": "fraction unbound", "setting": "[8]", "value": 0.01},
      {"measurement": "fold change (FC)", "setting": "[9]", "value": 0.902},
      {"measurement": "microsomal CLint", "setting": "[10]", "value": "< 18", "unit": "µL/min/mg"},
      {"measurement": "CL", "setting": "[11]", "value": "< 2", "unit": "%"},
      {"measurement": "pKa", "setting": "[12]", "value": 5.1},
      {"measurement": "Activity", "setting": "[13]", "value": "Non-Toxic"},
      {"measurement": "IC50", "setting": "[14]", "value": "> 100", "unit": "µM"}
    ]},
    {"smiles": "O=S(=O)(Nc1cncc(C(F)(F)F)c1)c1ccccc1C(F)(F)F", "values": [
      {"measurement": "IC50", "setting": "[1]", "value": 8.5, "unit": "µM"},
      {"measurement": "Activity", "setting": "Rattus norvegicus", "value": "<= 100 mg/kg/day"},
      {"measurement": "Activity", "setting": "[2]", "value": 228, "unit": "µM"},
      {"measurement": "CLH", "setting": "[3]", "value": 6, "unit": "µL/min/1e6 cells"},
      {"measurement": "fold change (FC)", "setting": "[4]", "value": 0.702},
      {"measurement": "IC50", "setting": "[5]", "value": 9.3, "unit": "µM"},
      {"measurement": "clearance", "setting": "[6]", "value": 0.55, "unit": "mL/min/kg"},
      {"measurement": "microsomal CLint", "setting": "[7]", "value": 11, "unit": "µL/min/mg"},
      {"measurement": "fraction unbound", "setting": "[8]", "value": 0.057},
      {"measurement": "fold change (FC)", "setting": "[9]", "value": 0.573},
      {"measurement": "microsomal CLint", "setting": "[10]", "value": "< 18", "unit": "µL/min/mg"},
      {"measurement": "CL", "setting": "[11]", "value": "< 2", "unit": "%"},
      {"measurement": "pKa", "setting": "[12]", "value": 5.2},
      {"measurement": "Activity", "setting": "[13]", "value": "Non-Toxic"},
      {"measurement": "IC50", "setting": "[14]", "value": "> 30", "unit": "µM"}
    ]}
  ]
}
